System: Huh7 (human liver cancer cells)
Experiment: In vitro proliferation inhibition (CCK-8), Huh7
Format: cell-based
Settings: Homo sapiens, Huh-7, Huh7, test (2), average±standard deviation of three wells
Source text: (§1) • 1) Cell sources: HeLa (human cervical cancer cells), CaSki (human cervical cancer intestinal metastasis cells), Huh7 (human liver cancer cells), HepG2 (human liver cancer cells), Hep3B (human liver cancer cells) were purchased from the Chinese Academy of Sciences cell bank (Shanghai); LO2 (human normal liver cells) and HcerEpic (human normal uterine epithelial cells) were from ATCC. • 2) Cell culture and passage: The cell culture and passage method is the same as that described in “The inhibitory effect of compounds on the OCT4 protein in tumor stem cells (CSC)”. • 3) Cell dosing treatment: The each type of cells mentioned above was digested, counted, and inoculated in each well of the 96 well cell culture plate (#3988, Corning) at a density of 5000 cells/200 μl culture medium. They were cultured in a cell culture incubator at 37° C. and 5% CO2 for 24 hours to allow the cells to fully adherent to the wall. Then, the original culture medium was replaced with complete culture medium containing gradient diluted KZT-A5 (each concentration with 3 repeated wells) as well as DMSO (#D5879, Sigma Aldrich) solvent control, and they are cultured for additional 72 hours. • 4) Pharmacodynamic test and statistics: First, the morphology of cells treated with the above compounds was observed, photographed and recorded using an inverted phase contrast microscope (X71, Olympus). Then the original culture medium was replaced with phenol red free culture medium containing CCK-8 detection reagent (#E606335, Shanghai Shenggong) respectively, and they are cultured in the incubator for additional 2 hours. Then the OD450 nm absorbance value (OD value) was measured on a multifunctional enzyme-linked immunosorbent assay (168-1130, Bio Rad). After the cells were treated with the test compound, the equations for calculating the cell survival rate or cell growth rate is: survival rate=GD value of the treated group/OD value of the control group×100%; the equations for calculating the growth inhibition rate of compounds on cell proliferation is: inhibition rate=(OD value of control group−OD value of the treated group)/OD value of control group×100%. Further, the IC50 of each compound was calculated in SPSS based on the inhibition rate.
(§2) • 1) Cell sources: Huh7 (human liver cancer cells), HepG2 (human liver cancer cells), Hep3B (human liver cancer cells), and HeLa (human cervical cancer cells) were all purchased from the Chinese Academy of Sciences cell bank (Shanghai), while LO2 (human normal liver cells) was obtained from ATCC. • 2) Cell culture and passage: The cell culture and passage method is the same as that described in “The inhibitory effect of compounds on human tumor cell lines from different tissue sources (1)”. • 3) Cell dosing treatment: The cell dosing treatment method is the same as that described in “The inhibitory effect of compounds on human tumor cell lines from different tissue sources (1). • 4) Pharmacodynamic test and statistics: The pharmacodynamic test and statistics method is the same as that described in “The inhibitory effect of compounds on human tumor cell lines from different tissue sources (1)”. The IC50 value data of the compound on each type of tumor cells is the average±standard deviation of three wells in one test.

Row | IC50 | Structure (SMILES)
1 | 44.2 ± 1.61 µM | CCC(CO)/N=C1\CCCc2c1[nH]c1ccc(C)cc21 (stereo not drawn) [AH057, reference compound]

System: HeLa (human cervical cancer cells)
Experiment: In vitro proliferation inhibition (CCK-8), HeLa
Format: cell-based
Settings: Homo sapiens, 72 h, CCK-8, average of three wells in one test
Source text: as §1, §2

Row | IC50 | Structure (SMILES)
2 | < 50 µM | COc1cc(CC2CCc3c([nH]c4ccc(C)cc34)C2=O)ccc1O (stereo not drawn) [Compound 8]
3 | < 50 µM | Cc1ccc2[nH]c3c(c2c1)CC/C(=C\c1c[nH]c2ncccc12)C3=O [Compound 14]
4 | < 50 µM | Cc1ccc2[nH]c3c(c2c1)CC/C(=C\c1ccnc2[nH]ccc12)C3=O [Compound 16]
5 | < 50 µM | COc1cc(/C=C2\CCc3c([nH]c4ccc(Br)cc34)C2=O)ccc1O [Compound 19]
6 | < 50 µM | COc1cc(/C=C2\CCc3c([nH]c4ccc(C#N)cc34)C2=O)ccc1O [Compound 20]
7 | < 50 µM | COC(=O)c1ccc2[nH]c3c(c2c1)CC/C(=C\c1ccc(O)c(OC)c1)C3=O [Compound 21]
8 | < 50 µM | COc1cc(/C=C2\CCc3c([nH]c4ccc(N5CCC(O)CC5)cc34)C2=O)ccc1O [Compound 22]
9 | < 50 µM | COc1cc(/C=C2\CCc3c([nH]c4ccc(N5CCNCC5)cc34)C2=O)ccc1O [Compound 23]
10 | < 50 µM | COc1cc(/C=C2\CCc3c([nH]c4ccc(-c5cn[nH]c5)cc34)C2=O)ccc1O [Compound 24]
11 | < 50 µM | C#Cc1ccc2[nH]c3c(c2c1)CC/C(=C\c1ccc(O)c(OC)c1)C3=O [Compound 25]
12 | < 50 µM | COc1cc(/C=C2\CCc3c([nH]c4ccc(F)cc34)C2=O)ccc1O [Compound 27]
13 | < 50 µM | COC(=O)c1ccc2[nH]c3c(c2n1)CC/C(=C\c1ccc(O)c(OC)c1)C3=O [Compound 28]
14 | < 50 µM | COc1cc(/C=C2\CCc3c([nH]c4cc(OC)c(OC)cc34)C2=O)ccc1O [Compound 31]
15 | < 50 µM | COc1cc(/C=C2\CCc3c([nH]c4c(Cl)cc(Cl)cc34)C2=O)ccc1O [Compound 32]
16 | < 50 µM | COc1ccc2[nH]c3c(c2n1)CC/C(=C\c1ccc(O)c(OC)c1)C3=O [Compound 33]

Same assay, conditions: Homo sapiens, 72 hours, CCK-8, average of three wells in one test

Row | Structure (SMILES) | IC50
17 | COc1ccc2[nH]c3c(c2c1)CC/C(=C\c1ccc(O)c(OC)c1)C3=O [Compound 18] | < 50 µM
18 | COc1cc(/C=C2\CC(C)(C)c3c([nH]c4ccc(C)cc34)C2=O)ccc1O [Compound 34] | < 50 µM
19 | COc1cc(/C=C2\Cc3c([nH]c4ccc(C)cc34)C2=O)ccc1O [Compound 35] | < 50 µM
20 | COc1cc(/C=C2\CSc3c([nH]c4ccc(C)cc34)C2=O)ccc1O [Compound 36] | < 50 µM
21 | COc1cc(/C=C2\CCCc3c([nH]c4ccc(C)cc34)C2=O)ccc1O [Compound 37] | < 50 µM
22 | COc1cc(/C=C2\CCc3c([nH]c4ccc(C)cc34)C2=O)cc(OC)c1OC [Compound 38] | < 50 µM

Same assay, conditions: Homo sapiens, test (2), average±standard deviation of three wells

Row | IC50 | Structure (SMILES)
23 | 0.63 ± 0.03 µM | CCC(CO)/N=C1\CCCc2c1[nH]c1ccc(C)cc21 (stereo not drawn) [AH057, reference compound]

System: HepG2 (human liver cancer cells)
Experiment: In vitro proliferation inhibition (CCK-8), HepG2
Format: cell-based
Settings: Homo sapiens; HepG2, test (2), average±standard deviation of three wells
Source text: (§3) • 1) Cell sources: HeLa (human cervical cancer cells), CaSki (human cervical cancer intestinal metastasis cells), Huh7 (human liver cancer cells), HepG2 (human liver cancer cells), Hep3B (human liver cancer cells) were purchased from the Chinese Academy of Sciences cell bank (Shanghai); LO2 (human normal liver cells) and HcerEpic (human normal uterine epithelial cells) were from ATCC. • 2) Cell culture and passage: The cell culture and passage method is the same as that described in “The inhibitory effect of compounds on the OCT4 protein in tumor stem cells (CSC)”. • 3) Cell dosing treatment: The each type of cells mentioned above was digested, counted, and inoculated in each well of the 96 well cell culture plate (#3988, Corning) at a density of 5000 cells/200 μl culture medium. They were cultured in a cell culture incubator at 37° C. and 5% CO2 for 24 hours to allow the cells to fully adherent to the wall. Then, the original culture medium was replaced with complete culture medium containing gradient diluted KZT-A5 (each concentration with 3 repeated wells) as well as DMSO (#D5879, Sigma Aldrich) solvent control, and they are cultured for additional 72 hours. • 4) Pharmacodynamic test and statistics: First, the morphology of cells treated with the above compounds was observed, photographed and recorded using an inverted phase contrast microscope (X71, Olympus). Then the original culture medium was replaced with phenol red free culture medium containing CCK-8 detection reagent (#E606335, Shanghai Shenggong) respectively, and they are cultured in the incubator for additional 2 hours. Then the OD450 nm absorbance value (OD value) was measured on a multifunctional enzyme-linked immunosorbent assay (168-1130, Bio Rad). After the cells were treated with the test compound, the equations for calculating the cell survival rate or cell growth rate is: survival rate=GD value of the treated group/OD value of the control group×100%; the equations for calculating the growth inhibition rate of compounds on cell proliferation is: inhibition rate=(OD value of control group−OD value of the treated group)/OD value of control group×100%. Further, the IC50 of each compound was calculated in SPSS based on the inhibition rate. […]

Row | IC50 | Structure (SMILES)
24 | 40.02 ± 0.08 µM | CCC(CO)/N=C1\CCCc2c1[nH]c1ccc(C)cc21 (stereo not drawn) [AH057, reference compound]

System: Hep3B (human liver cancer cells)
Experiment: In vitro proliferation inhibition (CCK-8), Hep3B
Format: cell-based
Settings: Homo sapiens, test (2), average±standard deviation of three wells
Source text: as §3

Row | IC50 | Structure (SMILES)
25 | 18 ± 1.2 µM | CCC(CO)/N=C1\CCCc2c1[nH]c1ccc(C)cc21 (stereo not drawn) [AH057, reference compound]

System: HeLa cells
Experiment: Clone formation of HeLa cells, single drugs and combination
Format: cell-based, human
Settings: 700 nM KZT-A5, 100 nM SGI-1027, two weeks, compared with DMSO control, FIG. 7
Source text: • 1) Cell source: HeLa cells were purchased from the Chinese Academy of Sciences Cell Bank (Shanghai). • 2) Cell culture and passage: The cell culture and passage method is the same as that described in “Inhibition of OCT4 protein in tumor stem cells (CSCs) by compounds”. • 3) Cell dosing treatment: The cells were inoculated into a 6-well plate containing the aforementioned culture medium at a density of 200 cells per well. They were divided into four groups, and DMSO (as blank control group), 700 nM KZT-A5 (as KZT-A5 single drug group), 100 nM SGI-1027 (as SGI-1027 single drug group), and 700 nM KZT-A5+100 nM SGI-1027 (as combination group) was added respectively. After two weeks, they were photographed, and the number of clones was counted in each group respectively.

Row | Structure (SMILES) | inhibition of clone formation
26 | Cc1cc(Nc2ccc(NC(=O)c3ccc(Nc4ccnc5ccccc45)cc3)cc2)nc(N)n1 [SGI-1027, reference compound] | only slightly inhibits clone formation

System: LO2 (human normal liver cells)
Experiment: In vitro proliferation inhibition (CCK-8), LO2
Format: cell-based
Settings: LO2, test (2), average±standard deviation of three wells
Source text: • 1) Cell sources: HeLa (human cervical cancer cells), CaSki (human cervical cancer intestinal metastasis cells), Huh7 (human liver cancer cells), HepG2 (human liver cancer cells), Hep3B (human liver cancer cells) were purchased from the Chinese Academy of Sciences cell bank (Shanghai); LO2 (human normal liver cells) and HcerEpic (human normal uterine epithelial cells) were from ATCC. • 2) Cell culture and passage: The cell culture and passage method is the same as that described in “The inhibitory effect of compounds on the OCT4 protein in tumor stem cells (CSC)”. • 3) Cell dosing treatment: The each type of cells mentioned above was digested, counted, and inoculated in each well of the 96 well cell culture plate (#3988, Corning) at a density of 5000 cells/200 μl culture medium. They were cultured in a cell culture incubator at 37° C. and 5% CO2 for 24 hours to allow the cells to fully adherent to the wall. Then, the original culture medium was replaced with complete culture medium containing gradient diluted KZT-A5 (each concentration with 3 repeated wells) as well as DMSO (#D5879, Sigma Aldrich) solvent control, and they are cultured for additional 72 hours. • 4) Pharmacodynamic test and statistics: First, the morphology of cells treated with the above compounds was observed, photographed and recorded using an inverted phase contrast microscope (X71, Olympus). Then the original culture medium was replaced with phenol red free culture medium containing CCK-8 detection reagent (#E606335, Shanghai Shenggong) respectively, and they are cultured in the incubator for additional 2 hours. Then the OD450 nm absorbance value (OD value) was measured on a multifunctional enzyme-linked immunosorbent assay (168-1130, Bio Rad). […] Further, the IC50 of each compound was calculated in SPSS based on the inhibition rate. […]

Row | Structure (SMILES) | IC50
27 | CCC(CO)/N=C1\CCCc2c1[nH]c1ccc(C)cc21 (stereo not drawn) [AH057, reference compound] | 85.5 ± 2.92 µM
